Experimental findings from patent publication US8486984B2, “Aminomethyl substituted bicyclic aromatic compounds suitable for treating disorders that respond to modulation of the dopamine D3 receptor” (Abbott GmbH & Co., KG, priority 2004, dated 2013) are described below.

Each structure is given as a SMILES string. Structures can show the parent of a compound that is named as a salt.

The target of assay [1] is T1, human dopamine D3 receptors (Homo sapiens, UniProt P35462).
T1 construct: expressed in transfected cells; membranes)
In words: Dopamine D3 receptor binding, [125I]-iodosulpride displacement. To be noted: for Ki: membranes from HEK-293 cells stably expressing receptor, 0.1 nM [125I]-iodosulpride, 25° C., 60 minutes; for Ki(D2)*/Ki(D3)*: selectivity, ratio of receptor binding constants D2/D3. As to the method: (§1) The substance to be tested was either dissolved in methanol/Chremophor® (BASF-AG) or in dimethyl sulfoxide and then diluted with water to the desired concentration.
(§2) Each assay mixture was run in triplicate.
The incubation buffer contained 50 mM tris, 120 mM NaCl, 5 mM KCl, 2 mM CaCl2, 2 mM MgCl2 and 0.1% bovine serum albumin, 10 μM quinolone and 0.1% ascorbic acid (prepared fresh daily). The buffer was adjusted to pH 7.4 with HCl.
(§3) After having been incubated at 25° C. for 60 minutes, the assay mixtures were filtered through a Whatman GF/B glass fiber filter under vacuum using a cell collecting device. The filters were transferred to scintillation viols using a filter transfer system. After 4 ml of Ultima Gold® (Packard) have been added, the samples were shaken for one hour and the radioactivity was then counted in a Beta-Counter (Packard, Tricarb 2000 or 2200CA). The cpm values were converted into dpm using a standard quench series and the program belonging to the instrument.
(§4) The inhibition curves were analyzed by means of iterative nonlinear regression analysis using the Statistical Analysis System (SAS) which is similar to the “LIGAND” program described by Munson and Rodbard.

The target of assay [2] is T2, human dopamine D2L receptors (long isoform) (Homo sapiens, UniProt P14416).
T2 construct: expressed in transfected cells; membranes)
In words: Dopamine D2L receptor binding, [125I] iodospiperone displacement. To be noted: membranes from HEK-293 cells stably expressing receptor; 0.01 nM [125I] iodospiperone; 25° C., 60 minutes; read-out: Ki(D2)*. How it is done:
as §1, §2
The incubation buffer contained 50 mM tris, 120 mM NaCl, 5 mM KCl, 2 mM CaCl2, 2 mM MgCl2 and 0.1% bovine serum albumin. The buffer was adjusted to pH 7.4 with HCl.
as §3, §4

T2 sequence (P14416 whole entry, canonical isoform): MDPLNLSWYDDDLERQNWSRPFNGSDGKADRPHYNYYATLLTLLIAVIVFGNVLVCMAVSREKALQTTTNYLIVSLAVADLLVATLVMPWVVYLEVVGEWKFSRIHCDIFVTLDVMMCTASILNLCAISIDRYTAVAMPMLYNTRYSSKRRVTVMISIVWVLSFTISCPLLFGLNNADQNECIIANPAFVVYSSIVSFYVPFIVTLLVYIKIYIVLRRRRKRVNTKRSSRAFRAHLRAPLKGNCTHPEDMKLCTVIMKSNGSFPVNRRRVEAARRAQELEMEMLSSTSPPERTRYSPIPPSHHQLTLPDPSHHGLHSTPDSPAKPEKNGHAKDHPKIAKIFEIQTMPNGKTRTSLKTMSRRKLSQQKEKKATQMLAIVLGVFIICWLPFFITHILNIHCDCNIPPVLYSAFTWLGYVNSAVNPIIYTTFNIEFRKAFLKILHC
T1 sequence (P35462 whole entry): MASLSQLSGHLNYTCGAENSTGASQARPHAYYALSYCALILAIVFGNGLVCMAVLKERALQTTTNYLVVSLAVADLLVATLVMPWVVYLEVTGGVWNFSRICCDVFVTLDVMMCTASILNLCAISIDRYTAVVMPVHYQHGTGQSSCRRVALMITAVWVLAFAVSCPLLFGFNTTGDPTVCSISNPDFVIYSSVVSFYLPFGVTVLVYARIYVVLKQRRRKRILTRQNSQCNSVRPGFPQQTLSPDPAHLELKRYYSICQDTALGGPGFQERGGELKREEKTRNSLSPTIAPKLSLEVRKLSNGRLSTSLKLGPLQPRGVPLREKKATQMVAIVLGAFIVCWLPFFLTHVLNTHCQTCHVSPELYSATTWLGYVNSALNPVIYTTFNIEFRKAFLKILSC

The term Ki denotes a dissociation constant, usually derived from enzyme kinetics or from competition with a known ligand. Turning to `CCCN1CC2CCc3cc(NS(=O)(=O)c4ccc(OC(F)F)cc4)ccc3C2C1.Cl` (stereo not shown) [Example 17, 4-Difluoromethoxy-N-(2-propyl-2,3,3a,4,5,9b-hexahydro-1H-benzo[e]isoindol-7-yl)-benzenesulfonamide, hydrochloride], in assay [1], the Ki stood at 3.3 nM and the “Ki(D2)*/Ki(D3)*” value is 19.

On to `C=CCNCC1Cc2cccc(NS(=O)(=O)c3ccc(C(C)C)cc3)c2C1` (stereo not shown) [Example 9, 4-Isopropyl-N-(2-allylaminomethyl-indan-4-yl)-benzenesulfonamide], for which, in assay [2], the Ki came to 232 nM. In assay [1], the affinity, expressed as Ki, was 4.3 nM and the “Ki(D2)*/Ki(D3)*” value was 54.

On to `CCCNCC1CCCc2cc(NS(=O)(=O)c3ccc(C(C)C)cc3)ccc21` (stereo not shown) [Example 5, 4-Isopropyl-N-(5-propylaminomethyl-5,6,7,8-tetrahydro-naphthalen-2-yl)-benzenesulfonamide×HCl], for which the Ki in assay [2] was 119 nM. In addition, in assay [1], the affinity, expressed as Ki, was 1.72 nM and the “Ki(D2)*/Ki(D3)*” value is given as 69.

With `CCCNCC1CCc2cc(NS(=O)(=O)c3ccc(C(C)C)cc3)ccc21` (stereo not shown) [Example 10, 4-Isopropyl-N-(1-propylaminomethyl-indan-5-yl)-benzenesulfonamide], the Ki in assay [2] is 58.6 nM. Further, in assay [1], the Ki came out at 1.32 nM and the “Ki(D2)*/Ki(D3)*” value amounted to 45.

With `CCCN1CC2CCc3cc(NS(=O)(=O)c4ccc(C(C)C)cc4)ccc3C2C1.Cl` (stereo not shown) [Example 14, 4-Isopropyl-N-(2-propyl-2,3,3a,4,5,9b-hexahydro-1H-benzo[e]isoindol-7-yl)-benzenesulfonamide, hydrochloride], in assay [1], the Ki came to 0.5 nM and the “Ki(D2)*/Ki(D3)*” value is recorded as 28.

As for `CCCNCC1Cc2cc(NS(=O)(=O)c3ccc(OC(F)(F)F)cc3)ccc2N1` (stereo not shown) [Example 4, N-(2-Propylaminomethyl-2,3-dihydro-1H-indol-5-yl)-4-trifluoromethoxy-benzenesulfonamide×HCl], the Ki in assay [2] was 7640 nM. Further, in assay [1], the Ki is 63.4 nM and the “Ki(D2)*/Ki(D3)*” value stood at 120.

`CCCN1CC2CCc3cc(NS(=O)(=O)c4ccc(C(C)C(F)(F)F)cc4)ccc3C2C1.Cl` (stereo not shown) [Example 15, N-(2-Propyl-2,3,3a,4,5,9b-hexahydro-1H-benzo[e]isoindol-7-yl)-4-(2,2,2-trifluoro-1-methylethyl)-benzenesulfonamide, hydrochloride]: in assay [1], the affinity, expressed as Ki, was 1.8 nM and the “Ki(D2)*/Ki(D3)*” value is on record as 36.

On to `CCCNCc1cc2cc(NS(=O)(=O)c3ccc(OC(F)(F)F)cc3)ccc2[nH]1` [Example 3, N-(2-Propylaminomethyl-1H-indol-5-yl)-4-trifluoromethoxy-benzenesulfonamide×½ fumaric acid], for which, in assay [2], the Ki worked out at 55 nM. Further, in assay [1], affinity was put at a Ki of 55 nM and the “Ki(D2)*/Ki(D3)*” value amounted to 23.

On to `CCCN1CC2CCc3cc(NS(=O)(=O)c4ccc(OC(F)(F)F)cc4)ccc3C2C1.Cl` (stereo not shown) [Example 16, N-(2-Propyl-2,3,3a,4,5,9b-hexahydro-1H-benzo[e]isoindol-7-yl)-4-trifluoromethoxy-benzenesulfonamide hydrochloride], for which, in assay [1], the Ki was 3.6 nM and the “Ki(D2)*/Ki(D3)*” value was determined as 66.

As to `CCCN1CC2CCc3c(cc(Cl)c(NS(=O)(=O)c4ccc(C(C)C)cc4)c3Cl)C2C1.Cl` (stereo not shown) [Example 13, N-(6,8-Dichloro-2-propyl-2,3,3a,4,5,9b-hexahydro-1H-benzo[e]isoindol-7-yl)-4-isopropyl-benzenesulfonamide, hydrochloride], in assay [1], the Ki was found to be 10.1 nM and the “Ki(D2)*/Ki(D3)*” value is 5.

Take `CCCNCC1Cc2cc(NS(=O)(=O)c3ccc(C(C)C)cc3)ccc2N1` (stereo not shown) [Example 2, 4-Isopropyl-N-(2-propylaminomethyl-2,3-dihydro-1H-indol-5-yl)-benzenesulfonamide×HCl]: the figures for the Ki in assay [2] and in assay [1] were 517 nM and 9.4 nM, respectively. Moreover, the “Ki(D2)*/Ki(D3)*” value in assay [1] is recorded as 55.

`CCCN1CCC2c3ccc(NS(=O)(=O)c4ccc(C(C)C)cc4)cc3NC2C1` (stereo not drawn) [Example 12, 4-Isopropyl-N-(2-propyl-2,3,4,4a,9,9a-hexahydro-1H-beta-carbolin-7-yl)-benzenesulfonamide]: the figures for the Ki in assay [2] and in assay [1] were 137 nM and 5.3 nM, respectively. Besides, the “Ki(D2)*/Ki(D3)*” value in assay [1] was determined as 26.

For the molecule `CCCNCC1Cc2ccc(NS(=O)(=O)c3ccc(C(C)C)cc3)cc2C1` (stereo not shown) [Example 7, 4-Isopropyl-N-(2-propylaminomethyl-indan-5-yl)-benzenesulfonamide], the Ki in assay [2] worked out at 398 nM. In addition, in assay [1], the affinity corresponds to a Ki of 7.4 nM and the “Ki(D2)*/Ki(D3)*” value amounted to 54.

As for `CCCNCc1cc2cc(NS(=O)(=O)c3ccc(C(C)C)cc3)ccc2[nH]1` [Example 1, 4-Isopropyl-N-(2-propylaminomethyl-1H-indol-5-yl)-benzenesulfonamide], the values for the Ki in assay [2] and in assay [1] were 225 nM and 5.8 nM, respectively. Besides, the “Ki(D2)*/Ki(D3)*” value in assay [1] was determined as 39.
